The text below walks through data of patent US7348330B2, “1-azabicyclo [2,2,2] octan-3-one derivatives” (Aprea AB, priority 2000, dated 2008).

One data set has as its system Saos-2 cells lacking p53. Kind of data set: Colony formation assay. Type of data set: cell-based, human. The note with it: 5 µM of compound; colonies after 14 days. An excerpt: Colonies were stained with Giemsa and counted 14 days after seeding.
The cells were Giemsa stained and scored for the appearance of colonies after 14 days.

Data set [1] addresses T1, endogenous Trp-282 mutant p53 (Homo sapiens, UniProt P04637, R282W).
T1 construct: endogenous Trp-282 mutant p53 in cell extracts from Burkitt lymphoma BL-60 cells; endogenous in cells; host or cells: Burkitt lymphoma BL-60 cells (cell extract)
The data set is described as follows: Band shift assay, BL-60 cell extracts. Type of data set: biochemical. As to conditions: cell extracts from Burkitt lymphoma BL-60 cells.

Data set [2] relates to A431 cells that carry endogenous His-273 mutant p53. The data set is described as follows: p53-responsive lacZ reporter. Type of data set: cell-based. The note with it: 50 μM for 20 hours.
Data set [3] can be described thus: Toxicity assessment in SCID mice. In kind it is in vivo. How it is done: (§1) All animal studies were approved by the local animal ethical committee and animal care was in accordance with institutional guidelines. For toxicity assessment, 12 SCID mice (average weight 25 g) were divided in 4 groups. […] Control animals were injected with PBS. We measured weights of the mice for 1 month after the last injection. […] After 3 days the mice were divided into 4 groups. […] Injections were performed twice daily for 3 days. Tumor volume was measured during 2 months.
(§2) In the untreated control group, the average tumor volume after 59 days was 555.7±284 mm^3 (means±SE, n=3).

The test system of a further data set is Saos-2-His-273 cells. Kind of data set: Anti-tumor activity, xenograft in SCID mice. The note with it: after 59 days. In kind it is in vivo. How it is done: SCID mice were injected with Saos-2-His-273 cells. […] Tumor volumes were measured once in three days for two months.
as §1, §2

Molecules are shown by their SMILES.

For `CCC(=O)OCN1C(=O)C=CC1=O` [MIRA-1], the “inhibition of colony formation” value with Saos-2 cells lacking p53 is on record as 48%. The “restoration of sequence-specific DNA binding” value in data set [1] is on record as “able to restore”.

For `O=C1C2CCN(CC2)C1(CO)CO` [PRIMA-1, 2,2-bis(hydroxymethyl)-1-azabicyclo[2,2,2]octan-3-one], in data set [2], the lacZ reporter induction entry is reported as “appearance of lacZ-positive cells”. Further, in data set [3] (100 mg/kg i.v., after one month of observation, means±SE), the “average weight of mice” value was 20 ± 0.2 g. The “changes in behavior or weight” value in data set [3] (intravenous injections, 1, 10 and 100 mg/kg daily for 5 days) is on record as “did not cause any obvious changes in behavior or weight”. For the same compound, the average tumor volume with Saos-2-His-273 cells (20 mg/kg i.v. twice a day for three days) worked out at 53±48.5 mm^3; in the data set with Saos-2-His-273 cells (intratumor 20 mg/kg twice a day for three days) it was 5.3±2.7 mm^3; with Saos-2-His-273 cells (intravenous 100 mg/kg twice a day for three days), 11.7±8 mm^3.
